Values joined by “and” are separate entries in the source; they are usually repeats but may differ in a detail not shown here. Identical values can stand only once.
Tested on: 967376-340-R-J2-PDC multicell spheroid viability
Test: Anticancer human tumor 967376-340-R-J2-PDC patient-derived colon adenocarcinoma cell line growth inhibition [PI3K]
Conditions: for viability, T/C: stronger effect = lower value
Excerpt: Combinatorial screen of targeted agents with the PI3K inhibitors inavolisib, alpelisib, duvelisib, and copanlisib in multi-cell type tumor spheroids
A high-throughput screen of multi-cell type tumor spheroids was designed to identify active combinations of targeted small molecules and PI3K pathway inhibitors. Complex spheroids include a stromal component modeled by human endothelial cells (HUVEC) and fibroblasts modeled by human mesenchymal stem cells (MSCs). The concentration ranges selected for each drug and investigational agent were based upon clinically achievable concentrations if the clinical Cmax of the agent was known.
Compounds. The drugs and investigational agents: inavolisib (NSC800729), alpelisib (NSC765974), duvelisib (NSC772469), copanlisib (NSC816437), ipatasertib (NSC767898), afuresertib (NSC778305), talazoparib (NSC767125), sapanisertib (NSC764658), selumetinib (NSC741078), tovorafenib (DAY101, NSC766906), vemurafenib (NSC761431), ravoxertinib (NSC781343), sotorasib (NSC818433), MRTX1133 (NSC 836407), abemaciclib (NSC 768073), palbociclib (NSC758247), venetoclax (NSC 766270), SY5609 (NSC837396), enzalutamide (NSC755605), and darolutamide (NSC825331), were obtained from the National Cancer Institute (NCI) Developmental Therapeutics Program Chemical Repository. The FDA-approved anticancer drug set is available from the NCI Developmental Therapeutics Program. […] The stock solutions were prepared in dimethyl sulfoxide (DMSO, Sigma-Aldrich, St. Louis, MO, cat. D2650) at 800-fold the tested concentration and stored at -70 degrees C prior to their use. All drugs and investigational agents were tested over a range starting from a high concentration at or near the clinical Cmax and decreasing in half-log increments. If the clinical Cmax for an agent had not been determined, the highest concentration tested was 10 microM.
Cell Culture. All cells were maintained in an incubator at 37 degrees C and 5% CO2 with 95% humidity. The PDC lines were cultured according to standard operating procedures established by the NCI PDMR (https://pdmr.cancer.gov/sops/default.htm). All PDCs were thawed and cultured in Matrigel-coated flasks prepared with a working solution of 1X Ham's F-12 nutrient mix, without supplementation (Invitrogen, Waltham, MA, cat. 11765054), 100 U/mL penicillin-streptomycin (Invitrogen, cat. 15140122), and 2.5% Matrigel (Corning Inc., Corning, NY, cat. 354248) for the first three passages. The 354836-022-R-J1-PDC, 475296-252-R-J1-PDC, and 997726-040-R-J2-PDC lines were cultured in 6A media, which includes advanced DMEM/F-12 (Thermo Fisher Scientific, cat. 12634028), 10 mM HEPES (Thermo Fisher Scientific, cat. 15630080), 1X GlutaMAX supplement (Thermo Fisher Scientific, cat. 35050061), 0.1 mg/mL primocin (InvivoGen, San Diego, CA, cat. ant-pm-2), 10% defined fetal bovine serum, heat inactivated (HyClone Laboratories Inc., Logan, UT, cat. SH30070.03HI), 50% L-WRN conditioned media (ATCC, cat. CRL-3276), 1.25 mM N-Acetyl-L-cysteine (Sigma-Aldrich, cat. A9165), 10 mM nicotinamide (Sigma-Aldrich, cat. N0636), 1X B-27 supplement (Thermo Fisher Scientific, cat. 17504044), 1X N-2 supplement (Thermo Fisher Scientific, cat. 17502048), and 10 microM Y-27632 dihydrochloride (Tocris Bioscience, Bristol, United Kingdom, cat. 1254). The 624824-186-R-J2-PDC line was cultured in 6C/Colon 1B media, which includes all 6A media components plus 50 ng/mL human EGF recombinant protein (Thermo Fisher Scientific, cat. PHG0311). […]

[1] = compound alone, run of 06/13/2023
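Further: spheroids exposed to agents for 7 days before read-out.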
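Wherever viability, T/C is given: luminescence used as surrogate of cell viability.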

Row | Compound | IC50 (curve of compound) | IC50 [1] | viability, T/C (compound 0.0316 µM) | viability, T/C (compound 0.1 µM) | viability, T/C (compound 3.16 µM) | viability, T/C (compound 0.316 µM) | viability, T/C (compound 1 µM) | viability, T/C (compound 10 µM) | viability, T/C (compound 0.000316 µM) | viability, T/C (compound 0.001 µM) | viability, T/C (compound 0.00316 µM) | viability, T/C (compound 0.01 µM) | viability, T/C (compound 0.00949 µM) | viability, T/C (compound 0.03 µM) | viability, T/C (compound 0.0949 µM)
1 | CC(Cn1ccc(-c2ccc(C#N)c(Cl)c2)n1)NC(=O)c1cc(C(C)O)[nH]n1 (stereo unspecified) | > 10 µM | – | 105% [middle of 4 runs] | 99.6% [middle of 4 runs] | 103% [middle of 4 runs] | 101% [middle of 4 runs] | 101% [middle of 4 runs] | – | – | – | – | – | – | – | –
2 | CC(Nc1ccc2c(c1)OCCn1cc(N3C(=O)OCC3C(F)F)nc1-2)C(N)=O (stereo unspecified) | – | – | 86.9% [middle of 7 runs] | 81.4% [middle of 7 runs] | – | 67% [middle of 7 runs] | 52.7% [middle of 7 runs] | – | – | – | – | – | – | – | –
3 | CC(Nc1ncnc2nc[nH]c12)c1cc2cccc(Cl)c2c(=O)n1-c1ccccc1 (stereo unspecified) | – | > 10 µM | 94.5% [middle of 8 runs] | – | – | 89% [middle of 8 runs] | 94.5% [middle of 8 runs] | – | – | – | – | – | – | – | –
4 | CC1(C)CCC(Nc2ncc(C(F)(F)F)c(-c3c[nH]c4c(P(C)(C)=O)c(C#N)ccc34)n2)CN1 (stereo unspecified) | 9.93 µM and > 10 µM and 2.51 µM | – | 88.9% [middle of 4 runs] | – | 69.4% [middle of 4 runs] | 73.3% [middle of 4 runs] | 71.2% [middle of 4 runs] | 48.1% [middle of 4 runs] | – | – | – | – | – | – | –
5 | CCCS(=O)(=O)Nc1ccc(F)c(C(=O)c2c[nH]c3ncc(-c4ccc(Cl)cc4)cc23)c1F | > 10 µM and 9.14 µM | – | 102% [middle of 4 runs] | 87.8% [middle of 4 runs] | 104% [middle of 4 runs] | 94.6% [middle of 4 runs] | – | 56.4% [middle of 4 runs] | – | – | – | – | – | – | –
6 | CNC(=O)c1ccc(N2C(=S)N(c3ccc(C#N)c(C(F)(F)F)c3)C(=O)C2(C)C)cc1F | > 10 µM | – | – | 94.8% (2×) and 84.5% and 88.3% | – | 96.1% [middle of 4 runs] | 87.2% [middle of 4 runs] | 102% [middle of 4 runs] | – | – | – | – | – | – | –
7 | C[C@@H](NC(=O)c1ncnc(N)c1Cl)c1ncc(C(=O)Nc2cc(C(F)(F)F)c(Cl)cn2)s1 | > 10 µM | – | – | 95.8% [middle of 4 runs] | 107% [middle of 4 runs] | 94% [middle of 4 runs] | 110% [middle of 4 runs] | 109% [middle of 4 runs] | – | – | – | – | – | – | –
8 | Cc1nc(NC(=O)N2CCCC2C(N)=O)sc1-c1ccnc(C(C)(C)C(F)(F)F)c1 (stereo unspecified) | – | – | – | 85.3% [middle of 8 runs] | 64.3% [middle of 8 runs] | 80.7% [middle of 8 runs] | 73.6% [middle of 8 runs] | 45.7% [middle of 8 runs] | – | – | – | – | – | – | –
9 | Cn1cnc2c(F)c(Nc3ccc(Br)cc3Cl)c(C(=O)NOCCO)cc21 | – | – | – | – | – | – | – | – | – | – | – | – | 89.9% [middle of 4 runs] | 97.7% [middle of 4 runs] | 87.6% [middle of 4 runs]
10 | Cn1ncc(Cl)c1-c1cc(C(=O)NC(CN)Cc2cccc(F)c2)sc1Cl (stereo unspecified) | > 10 µM | – | 107% [middle of 4 runs] | – | 81.3% [middle of 4 runs] | 91.2% [middle of 4 runs] | – | 76.4% [middle of 4 runs] | – | – | – | – | – | – | –
11 | Cn1ncnc1[C@H]1c2n[nH]c(=O)c3cc(F)cc(c23)N[C@@H]1c1ccc(F)cc1 | > 0.1 µM | – | 93.2% and 88.8% and 97.9% | 92.5% and 99.6% and 94.7% | – | – | – | – | 78.6% and 114% and 95.8% | 82.5% and 93.1% and 84.2% | 90.3% and 94.6% and 70.5% | 103% and 104% and 90.4% | – | – | –

Further lines, with some results ahead:

Row | IC50 (curve of compound) | IC50 [1] | Compound | viability, T/C (compound 0.0316 µM) | viability, T/C (compound 0.1 µM) | viability, T/C (compound 3.16 µM) | viability, T/C (compound 0.316 µM) | viability, T/C (compound 1 µM) | viability, T/C (compound 10 µM) | viability, T/C (compound 0.000316 µM) | viability, T/C (compound 0.001 µM) | viability, T/C (compound 0.00316 µM) | viability, T/C (compound 0.01 µM) | viability, T/C (compound 0.00949 µM) | viability, T/C (compound 0.03 µM) | viability, T/C (compound 0.0949 µM)
12 | > 10 µM | – | C#Cc1c(F)ccc2cc(O)cc(-c3ncc4c(N5CC6CCC(C5)N6)nc(OCC56CCCN5CC(F)C6)nc4c3F)c12 (stereo unspecified) | 106% [middle of 4 runs] | 109% and 101% (2×) and 92.1% | 91.7% [middle of 4 runs] | – | – | – | – | – | – | – | – | – | –
13 | > 10 µM | – | C=CC(=O)N1CCN(c2nc(=O)n(-c3c(C)ccnc3C(C)C)c3nc(-c4c(O)cccc4F)c(F)cc23)C(C)C1 (stereo unspecified) | 106% and 98.1% and 85.1% | 87.2% and 75.8% and 115% | 119% and 123% and 101% | 106% and 107% and 86.6% | 97.1% and 124% and 96.3% | 112% and 107% and 119% | – | – | – | – | – | – | –
14 | > 0.1 µM | – | CC(=O)c1c(C)c2cnc(Nc3ccc(N4CCNCC4)cn3)nc2n(C2CCCC2)c1=O | 118% (2×) and 120% and 81.9% | 79% [middle of 4 runs] | – | – | – | – | 101% [middle of 4 runs] | 95.8% [middle of 4 runs] | 103% [middle of 4 runs] | 98.9% [middle of 4 runs] | – | – | –
15 | > 10 µM | – | CC(C)NCC(C(=O)N1CCN(c2ncnc3c2C(C)CC3O)CC1)c1ccc(Cl)cc1 (stereo unspecified) | 107% [middle of 4 runs] | 91.1% [middle of 4 runs] | 103% [middle of 4 runs] | 90.2% [middle of 4 runs] | 88% [middle of 4 runs] | 83.2% [middle of 4 runs] | – | – | – | – | – | – | –
16 | > 0.1 µM and 0.0967 µM | – | CC(C)n1nc(-c2ccc3oc(N)nc3c2)c2c(N)ncnc21 | 80.7% [middle of 4 runs] | 59.2% [middle of 4 runs] | – | – | – | – | 103% [middle of 4 runs] | – | 101% [middle of 4 runs] | – | – | – | –
17 | > 10 µM | – | CC1(C)CCC(CN2CCN(c3ccc(C(=O)NS(=O)(=O)c4ccc(NCC5CCOCC5)c([N+](=O)[O-])c4)c(Oc4cnc5[nH]ccc5c4)c3)CC2)=C(c2ccc(Cl)cc2)C1 | 99.2% [middle of 4 runs] | 94.1% [middle of 4 runs] | 89.6% [middle of 4 runs] | 88.6% [middle of 4 runs] | 88.1% [middle of 4 runs] | – | – | – | – | – | – | – | –
18 | > 1 µM | – | CCN1CCN(Cc2ccc(Nc3ncc(F)c(-c4cc(F)c5nc(C)n(C(C)C)c5c4)n3)nc2)CC1 | 94.2% [middle of 4 runs] | 82% [middle of 4 runs] | – | 87% [middle of 4 runs] | 74% [middle of 4 runs] | – | – | – | 110% [middle of 4 runs] | 93.5% [middle of 4 runs] | – | – | –
19 | – | 212 nM [middle of 8 runs] | COc1c(OCCCN2CCOCC2)ccc2c3n(c(=NC(=O)c4cnc(N)nc4)nc12)CCN3 | 79.9% [middle of 8 runs] | 60.7% [middle of 8 runs] | – | 47.8% [middle of 8 runs] | 38.5% [middle of 8 runs] | – | – | – | – | 85.7% [middle of 8 runs] | – | – | –
20 | > 10 µM | – | Cn1nccc1Nc1nccc(-c2ccn(C(CO)c3ccc(Cl)c(F)c3)c(=O)c2)n1 (stereo unspecified) | 100% [middle of 4 runs] | 94.5% [middle of 4 runs] | – | 101% (2×) and 95.3% and 76.4% | – | 99.5% [middle of 4 runs] | – | – | – | – | – | – | –
